Assay results from patent US12446584B2, “Termiticide composition and methods for treating termites” (ADAMA MAKHTESHIM LTD., priority 2013, dated 2025).
Read-outs that look alike come from different tables or passages of the source.

What was measured:
Assay type in all cases: in vivo
[1] = test system: Eastern subterranean termites (Reticulitermes flavipes); test: Thin plate bioassay
Description: (§1) A laboratory study was conducted, using recently collected R. flavipes and C. formosanus. Thin plate bioassays were assembled using 0.6 cm glass and 0.6 cm clear Lexan. A sheet of 20.3×66 cm glass was used for the bottom. Two pieces of 2.5×61 cm glass were laid along the long edges, and two pieces of […]. Each arena had 450 g of screened sand evenly applied, and moistened with deionized water to help hold it in place during construction of the arenas. Fisher brand tongue depressors, cut in half, were used as a food source for the termites, and placed at one end of the arena. Prior to adding the Lexan top sheets, 0.6 cm holes were drilled at one end, and three 0.6 cm treatment apertures were drilled equally spaced apart at the center line. One 8 cm Petri dish with a 0.6 cm hole drilled in the bottom was lined up with the hole at the end of the top sheet, and glued down. Glue was allowed to dry for 72 hours. Large binder clips were used to hold the arena together.
(§2) Termiticide solutions were prepared as follows: Fipronil 0.017%; Fipronil 0.03%; Imidacloprid 0.05%; Imi-Fip 0.067% (Imidacloprid 0.05%, Fipronil 0.017%); and Untreated Control (water only). Ten ml of each finished solution of termiticide were applied to each arena: each of the three treatment apertures received 3.3 ml of termiticide. The treatments were allowed to dry for 24 hours, and the treatment apertures were covered with a 2.5×7.5 cm microscope slide. In each Petri dish, 500 worker and 15 soldier termites were added, using either R. flavipes or C. formosanus. Each treatment was replicated four times. Data regarding distance tunneled and mortality were collected daily for eight days. Data was analyzed using Analysis of Variance (ANOVA) and means were separated by Tukey's HSD (Honest Significant Difference test (IBM SPSS v 19).

[2] = test system: Formosan subterranean termites (Coptotermes formosanus); test: Thin plate bioassay
Description: as §1, §2

[3] = test system: Eastern Subterranean Reticulitermes flavipes termites; test: Transfer effects among nestmates (donor/recipient Petri dish arenas); conditions: Reticulitermes flavipes, donors treated with 50 ppm
Description: The purpose of this study was to determine whether there is transference of […] among nestmates of subterranean termites. Arenas for this study consisted of a 15 cm Petri dish. […] Donor and untreated marked control termites were marked using RustOleum® Marking Paint, using methodology described by Keefer et al. 2012.
Two untreated soldier termites for each species were added to each arena to simulate colony dynamics. Post-treatment observations for mortality were made at 4 h and then daily through day 7.

[4] = 0.017% solution, 1 day post-treatment
[5] = 0.017% solution, 2 days post-treatment
[6] = 0.017% solution, 3 days post-treatment
[7] = 0.017% solution, 4 days post-treatment
[8] = 0.017% solution, 5 days post-treatment
[9] = 0.017% solution, 6 days post-treatment
[10] = 0.017% solution, 7 days post-treatment
[11] = 0.017% solution, 8 days post-treatment
[12] = 0.03% solution, 1 day post-treatment
[13] = 0.03% solution, 2 days post-treatment
[14] = 0.03% solution, 3 days post-treatment
[15] = 0.03% solution, 4 days post-treatment
[16] = 0.03% solution, 5 days post-treatment
[17] = 0.03% solution, 6 days post-treatment
[18] = 0.03% solution, 7 days post-treatment
[19] = 0.03% solution, 8 days post-treatment

## N#Cc1nn(-c2c(Cl)cc(C(F)(F)F)cc2Cl)c(N)c1[S+]([O-])C(F)(F)F [Fipronil, 5-amino-1-[2,6-dichloro-4-(trifluoromethyl)phenyl]-4-[(1-R,S)(trifluoromethyl)sulfinyl]-1H-pyrazole-3-carbonitrile]
[1]; [4]
  Mean % mortality: 5.25 a %
[1]; [5]
  Mean % mortality: 30.50 a %
[1]; [6]
  Mean % mortality: 75.00 a %
[1]; [7]
  Mean % mortality: 77.50 a %
[1]; [8]
  Mean % mortality: 90.00 b %
[1]; [9]
  Mean % mortality: 95.50 b %
[1]; [10]
  Mean % mortality: 100.00 a %
[1]; [11]
  Mean % mortality: 100.00 a %
[1]; [12]
  Mean % mortality: 0.75 b %
[1]; [13]
  Mean % mortality: 2.25 b %
[1]; [14]
  Mean % mortality: 67.50a %
[1]; [15]
  Mean % mortality: 70.00 a %
[1]; [16]
  Mean % mortality: 90.00 b %
[1]; [17]
  Mean % mortality: 100.00 a %
[1]; [18]
  Mean % mortality: 100.00 a %
[1]; [19]
  Mean % mortality: 100.00 a %
[2]; [4]
  Mean % mortality: 1.37 a %
[2]; [5]
  Mean % mortality: 8.62 b %
[2]; [6]
  Mean % mortality: 15.00 a %
[2]; [7]
  Mean % mortality: 30.60 a %
[2]; [8]
  Mean % mortality: 72.20 a %
[2]; [9]
  Mean % mortality: 72.20 c %
[2]; [10]
  Mean % mortality: 83.50 b %
[2]; [11]
  Mean % mortality: 100.00a %
[2]; [12]
  Mean % mortality: 5.05 a %
[2]; [13]
  Mean % mortality: 17.25ab %
[2]; [14]
  Mean % mortality: 19.75 a %
[2]; [15]
  Mean % mortality: 49.40 a %
[2]; [16]
  Mean % mortality: 70.50 a %
[2]; [17]
  Mean % mortality: 99.25 a %
[2]; [18]
  Mean % mortality: 100.00 a %
[2]; [19]
  Mean % mortality: 100.00a %
[3]; 4 h, by treatment (all ratios), 4 h, read-out: Mean % mortality of donors and recipients
  mortality at 50 ppm: 3.75%
[3]; 4 h, donor:recipient ratio 1:19, 4 h, read-out: Mean total % mortality of donors and recipients
  mortality at 50 ppm: 3.75%
[3]; 4 h, donor:recipient ratio 5:15, 4 h, read-out: Mean total % mortality of donors and recipients
  mortality at 50 ppm: 5%
[3]; 4 h, donor:recipient ratio 10:10, 4 h, read-out: Mean total % mortality of donors and recipients
  mortality at 50 ppm: 1.25%
[3]; 4 h, donor:recipient ratio 15:5, 4 h, read-out: Mean total % mortality of donors and recipients
  mortality at 50 ppm: 5%
[3]; 24 h, by treatment (all ratios), 1 d, read-out: Mean % mortality of donors and recipients
  mortality at 50 ppm: 23.5%
[3]; 24 h, donor:recipient ratio 1:19, 1 d, read-out: Mean total % mortality of donors and recipients
  mortality at 50 ppm: 10%
[3]; 24 h, donor:recipient ratio 5:15, 1 d, read-out: Mean total % mortality of donors and recipients
  mortality at 50 ppm: 17.5%
[3]; 24 h, donor:recipient ratio 10:10, 1 d, read-out: Mean total % mortality of donors and recipients
  mortality at 50 ppm: 17.5%
[3]; 24 h, donor:recipient ratio 15:5, 1 d, read-out: Mean total % mortality of donors and recipients
  mortality at 50 ppm: 56.2%
[3]; 48 h, by treatment (all ratios), 2 d, read-out: Mean % mortality of donors and recipients
  mortality at 50 ppm: 57.2%
[3]; 48 h, donor:recipient ratio 1:19, 2 d, read-out: Mean total % mortality of donors and recipients
  mortality at 50 ppm: 16.2%
[3]; 48 h, donor:recipient ratio 5:15, 2 d, read-out: Mean total % mortality of donors and recipients
  mortality at 50 ppm: 53.8%
[3]; 48 h, donor:recipient ratio 10:10, 2 d, read-out: Mean total % mortality of donors and recipients
  mortality at 50 ppm: 71.2%
[3]; 48 h, donor:recipient ratio 15:5, 2 d, read-out: Mean total % mortality of donors and recipients
  mortality at 50 ppm: 87.5%
[3]; 72 h, by treatment (all ratios), 3 d, read-out: Mean % mortality of donors and recipients
  mortality at 50 ppm: 70.3%
[3]; 72 h, donor:recipient ratio 1:19, 3 d, read-out: Mean total % mortality of donors and recipients
  mortality at 50 ppm: 22.5%
[3]; 72 h, donor:recipient ratio 5:15, 3 d, read-out: Mean total % mortality of donors and recipients
  mortality at 50 ppm: 70%
[3]; 72 h, donor:recipient ratio 10:10, 3 d, read-out: Mean total % mortality of donors and recipients
  mortality at 50 ppm: 88.8%
[3]; 72 h, donor:recipient ratio 15:5, 3 d, read-out: Mean total % mortality of donors and recipients
  mortality at 50 ppm: 100%
[3]; 96 h, by treatment (all ratios), 4 d, read-out: Mean % mortality of donors and recipients
  mortality at 50 ppm: 72.8%
[3]; 96 h, donor:recipient ratio 1:19, 4 d, read-out: Mean total % mortality of donors and recipients
  mortality at 50 ppm: 26.2%
[3]; 96 h, donor:recipient ratio 5:15, 4 d, read-out: Mean total % mortality of donors and recipients
  mortality at 50 ppm: 72.5%
[3]; 96 h, donor:recipient ratio 10:10, 4 d, read-out: Mean total % mortality of donors and recipients
  mortality at 50 ppm: 92.5%
